Assay: Human HepG2 cell viability assay in 384 well format
Type: toxicity, cell-based
Parameters: dose 125 nL, time 70.5 hour; concentration not given beside the values
Details: HepG2 cells, read-out: Inhibition

| Compound | cytotoxicity at 70.5 h |
| --- | --- |
| CC(C)(C)c1noc(CCC(=O)N2CCNC(=O)C2)n1 | 7.96% |
| Cc1nc(NC(=O)N2CCCC(C(C)(C)O)C2)nn1C (stereo not given) | -6.42% |
| COCCOc1ccnc(-c2noc([C@@H]3CCCN3C)n2)c1 | -3.64% |
| CCOCC(O)CN1CCN(C(=O)c2ccc(OC)cc2)CC1 (stereo not given) | -9.9% |
| Cc1ccc(S(=O)(=O)N2CC(C)Oc3ncccc32)c(F)c1 (stereo not given) | -7.65% |
| CCN1CCCC(C)(C(=O)NCCCc2nc(C)cs2)C1 (stereo not given) | -10.4% |
| c1cncc(O[C@H]2CC[C@H]3[C@H]2OCCN3C2CCCC2)c1 | -1.6% |
| CC[C@H]1CN(C(=O)c2cccnc2)CC[C@H]1CC(=O)NCCOC | -1.87% |
| O=c1c2cccc(C(F)(F)F)c2ncn1CCN1CCNCC1 | -1.89% |
| CC(C)n1ccnc1CN1CCCN(C(=O)COC2CCCC2)CC1 | -3.66% |
| Cc1cc(Cl)ccc1C(=O)N[C@H]1CN(S(C)(=O)=O)C[C@@H]1C1CC1 | -0.333% |
| Cc1cnc(C(=O)N2CCCC(n3cccn3)C2)cn1 (stereo not given) | -1.48% |
| Cc1cccc(CN2C[C@@H]3OCCN(c4cnccn4)[C@@H]3C2)n1 | -4.63% |
| CCC1CN(C(=O)c2ccc(=O)[nH]n2)CCC(=O)N1Cc1ccccc1 (stereo not given) | 1.68% |
| O=C(N[C@@H]1CN(Cc2cccc3[nH]ccc23)C[C@H]1O)c1cscn1 | -4.99% |
| COc1ccc(N2CCN(C(=O)NC(C)c3nncn3C)CC2)cc1 (stereo not given) | -3.61% |
| CCn1cc(CN2CCC(N3CCC(O)CC3)CC2)cc1C#N | -5.22% |
| CC(C)N1CC2(CCC1=O)CCN(C(=O)c1cc(F)ccc1Cl)CC2 | -5.5% |
| Cc1nc2ccc(S(=O)(=O)Nc3c(C)nn(CC(=O)O)c3C)cc2s1 | -10.8% |
| Cc1nc(CN2CCCC(NCCCc3ccccc3)C2)no1 (stereo not given) | -10.6% |
| CNC(=O)[C@@H](c1ccccc1OC)N1CCC[C@H]1C(=O)N1CC[C@@H](O)C1 | -3.98% |
| Cc1cnn(CC2CCCCN2C(=O)Cc2cn3ccsc3n2)c1 (stereo not given) | 11.4% |
| CCN(CC)S(=O)(=O)NCC1COc2ccccc2O1 (stereo not given) | 24.9% |

| Compound | cytotoxicity at 70.5 h |
| --- | --- |
| O=C(NC1CCN(c2ncccn2)CC1)c1cc2c([nH]c1=O)CCC2 | -10.7% |
| CCn1ncc(Cl)c1CN(C)C(=O)CCn1ncc(Br)c1C | -18% |
| Cc1ncsc1C(=O)N(Cc1ccccc1)C1CC1 | -19.8% |
| CC(C)CCc1nc(CNCC2CN(C)CCO2)cs1 (stereo not given) | -1.37% |
| CCN(Cc1c(C)nn(CC)c1C)S(=O)(=O)c1cn(C)nc1C | -2.98% |
| COCC(C)NC(=O)N(C)Cc1cc(C)on1 (stereo not given) | -5.5% |
| COCc1nc(CNC2CCSC2)no1 (stereo not given) | -2.87% |
| CC(C)n1ccc2ccc(C(=O)NC3CN4CCC3CC4)cc21 (stereo not given) | -17.1% |
| CN(C)c1nc2c(c(N(C)C)n1)CCN(C(=O)CN1CCC(O)CC1)C2 | -7.75% |
| Cc1cc(F)ccc1N1CCCC(NS(=O)(=O)CCCF)C1=O (stereo not given) | -6.3% |
| CCOCC(=O)NCC1Cn2nnc(-c3cccc(F)c3)c2CO1 (stereo not given) | -4.09% |
| CC(NC(=O)c1cccs1)(C(N)=O)c1cccc(C(F)(F)F)c1 (stereo not given) | -101% |
| COC[C@]12COC[C@H]1CN(Cc1cccnc1OC)C2 | -19% |
| O=C(NCCc1cscn1)c1coc(CN2CCOCC2)c1 | -8.02% |
| CCOc1nnc(CNC2CCCN(c3ccc(C)nn3)C2)s1 (stereo not given) | -1.05% |
| COc1c(C2CCCN2C(=O)c2ccc(C(N)=O)s2)c(C)nn1C (stereo not given) | -7.38% |
| CCCS(=O)(=O)NCc1nc(C)cc(N2CCCC2)n1 | -5.66% |
| Cc1cccc(CNC(=O)CC2CCN(Cc3ccccn3)CC2)n1 | -1.17% |
| O=C(Cc1cccs1)NS(=O)(=O)c1cccc2cnccc12 | -116% |
| CC(C)C(C)NC(=O)c1ncn2c1CN(C)S(=O)(=O)c1ccccc1-2 (stereo not given) | -2.58% |
| CC(C)CC(=O)NCc1cccc(OCCN(C)C2CCOCC2)c1 | -4.5% |
| NC(=O)C1CCN(CCCNC(=O)Nc2nccs2)CC1 | -25.9% |
